Assay results taken from patent US9095599B2, “O-(substituted benzyl) phosphoramidate compounds and therapeutic use” (Nanjing Molecular Research, Inc., priority 2011, dated 2015).
Entries after “also recorded” stand apart in the source; their conditions may differ.

What was measured:
[1] = Cytotoxicity assay (LTR-luc luciferase reporter); assay type: cell-based; details: human; Huh-7 LTR-luc cells
Excerpt: (§1) The anti-HCV activity and toxicity of the exemplary compounds can be tested in two biological assays—a cell-based HCV replicon assay and cytotoxicity assay (WO 2007/027248).
A Huh-7 cell line carrying a luciferase reporter gene (driven by a HIV LTR promoter) stably integrated into the chromosome was used to analyze the cytotoxic effect of the selected compounds. This cell line (LTR-luc) was maintained in DMEM medium with 10% FBS. Design of the cytotoxicity assay was similar to that of the HCV replicon assay. Reduction of luciferase activity in the treated cells correlated with the cytotoxic effect of the test compound and was used to calculate the CC50 value (concentration that inhibited cell growth by 50%).
(§2) The biological activities using subgenomic genotype 1a replicon and cytotoxicity of the selected compounds are summarized in Table 2.

[2] = system: HCV subgenomic replicon (genotype 1a) in Huh-7 cells; assay: HCV replicon assay (luciferase reporter); assay type: cell-based; details: for EC50: Hepatitis C virus, subgenomic genotype 1a replicon, Huh-7 luc-ubi-neo, 48 h, diastereomer mixtures
Experimental: Anti-HCV activity and cytotoxicity of compounds disclosed herein were assayed following patent method (WO 2007/027248).
as §1
A human hepatoma cell line (Huh-7) containing replicating HCV subgenomic replicon with a luciferase reporter gene (luc-ubi-neo) was used to evaluate anti-HCV activity of the compounds. In this assay, level of luciferase signal correlates with the viral RNA replication directly. The HCV replicon-reporter cell line (NK/luc-ubi-neo) was cultured in DMEM medium supplemented with 10% fetal bovine serum and 0.5 mg/ml Geneticin (G418). Cells were maintained in a subconfluent state to ensure high levels of HCV replicon RNA synthesis.
To evaluate the antiviral activity of compounds, serial dilutions were prepared with concentrations ranging from 0.14 to 300 μM. Diluted compounds were transferred to a 96-well plate followed by the addition of replicon cells (6000 cells per well). Cells were incubated with the compounds for 48 h after which luciferase activity was measured. Reduction of luciferase signal reflected the decrease of HCV replicon RNA in the treated cells and used to determine the EC50 value (concentration which yielded a 50% reduction in luciferase activity).
as §2

[3] = Rat plasma and liver PK after iv administration; assay type: in vivo, SD rats
Experimental: Pharmacokinetic (PK) study of prodrug FDURP (DGX-102) and parent drug (FDUR) in rats was completed according to following procedure.
SD rats (250-300 g, male, N=15) were used for each compound, purchased from SLAC Laboratory Animal Co. LTD Qualification No.: SCXK (SH) 2007-0005, 13264. Compounds FDUR and FDURP were each dosed via tail vein injection. The animal was restrained manually at designated time points. Approximately 500 μL of blood/time point was collected into K2EDTA tube via cardiac puncture for terminal bleeding under anesthesia with Isoflurane. FDUR and FDURP blood samples were put on ice after collection and then centrifuged to obtain plasma sample (2000 g, 5 min, 4° C.) within 15 minutes of sampling. The blood samples were then centrifuged to obtain plasma sample (2000 g, 5 min, 4° C.). All the plasma samples were immediately quenched for protein precipitation. Liver samples of each compound were removed at designated time points by first sacrificing the animal by CO2 inhalation, then perfusing the liver with ice cold saline and removing the left middle liver lobe, which was then snap frozen in dry ice. Liver samples were stored at approximately −80° C. until analysis. The liver homogenate was then processed for further analysis by LC/MS-MS. Plasma and liver samples were stored at approximately −80° C. until analysis.
Concentrations of prodrugs, parent drug and possible metabolites in both plasma and liver including FDURMP, FDUR, FDUR-MP and 5FU were determined by LC/MS-MS.

COc1nc(N)nc2c1ncn2C1OC(COP(=O)(NCc2ccccc2)OCc2ccccc2C)C(O)C1(C)O (centres unmarked) [DGX-111]
CC50 [1]: 69 µM
anti-HCV activity (in words) [2]: biologically much more potent
EC50 [2]: 0.3 µM

O=c1[nH]c(=O)n([C@H]2C[C@H](O)[C@@H](CO)O2)cc1F [FDUR, 5-fluoro-2′-deoxyuridine, reference compound]
Active metabolite FDUR-MP in the liver after administration ([3]; iv): not
liver Cmax ([3]; monitored compound 5FU, iv): BQL
liver Cmax ([3]; monitored compound FDUR, iv): BQL
liver Cmax ([3]; monitored compound FDUR-MP, iv): BQL
Drug FDUR Concentration, Liver ([3]; sampling 1, iv 0.015 mmol/kg): BQL
Drug FDUR Concentration, Liver ([3]; sampling 2, iv 0.015 mmol/kg): BQL
Drug FDUR Concentration, Plasma ([3]; sampling 2, iv 0.015 mmol/kg): BQL
Drug FDUR Concentration, Liver ([3]; sampling 4, iv 0.015 mmol/kg): BQL
Drug FDUR Concentration, Plasma ([3]; sampling 4, iv 0.015 mmol/kg): BQL
Drug FDUR Concentration, Liver ([3]; sampling 8, iv 0.015 mmol/kg): BQL
Drug FDUR Concentration, Plasma ([3]; sampling 8, iv 0.015 mmol/kg): BQL
Drug FDUR Concentration, Liver ([3]; sampling 24, iv 0.015 mmol/kg): BQL
Drug FDUR Concentration, Plasma ([3]; sampling 24, iv 0.015 mmol/kg): BQL

Cc1ccccc1COP(=O)(NCc1ccccc1)OCC1OC(n2ccc(=O)[nH]c2=O)C(C)(F)C1O (centres unmarked) [DGX-105]
CC50 [1]: > 100 µM
anti-HCV activity (in words) [2]: biologically potent; also recorded: potent anti-HCV activity
EC50 [2]: 1.9 µM

CC1(F)C(O)C(CO)OC1n1ccc(=O)[nH]c1=O (centres unmarked) [DGX-103]
CC50 [1]: > 100 µM
anti-HCV activity (in words) [2]: biologically inactive
EC50 [2]: > 100 µM

CC1(F)C(O)C(COP(=O)(NCc2ccccc2)OCc2ccccc2)OC1n1ccc(=O)[nH]c1=O (centres unmarked) [DGX-106]
CC50 [1]: > 100 µM
anti-HCV activity (in words) [2]: did not show any anti-HCV activity
EC50 [2]: > 100 µM

COc1nc(N)nc2c1ncn2C1OC(CO)C(O)C1(C)O (centres unmarked) [DGX-110]
CC50 [1]: > 100 µM
anti-HCV activity (in words) [2]: biologically active
EC50 [2]: 0.9 µM

Cc1ccccc1COP(=O)(NCc1ccccc1)OCC1OC(n2cc(F)c(=O)[nH]c2=O)CC1O (centres unmarked) [FDURP]
Active metabolite FDUR-MP in the liver after administration ([3]; iv): detected in the liver
Concentrations of related active drugs (FDUR, FDUR-MP, 5FU) compared with administration of FDUR ([3]; iv): significantly increased
Exposure in plasma and liver compared with parent drug FDUR ([3]; iv): significantly greater
Tmax ([3]; male, Sprague-Dawley, liver, 0.015 mmol/kg, monitored compound FDURP, iv): 60 min
AUC(0-inf) ([3]; male, Sprague-Dawley, plasma, 0.015 mmol/kg, monitored compound FDURP, iv): 10400 ng·h/mL
half-life ([3]; male, Sprague-Dawley, plasma, 0.015 mmol/kg, monitored compound FDURP, iv, printed in Tmax column, read-out: plasma T½ (converted)): 27 min
liver AUC(inf) ([3]; monitored compound FDURP, iv): 1750 ng·h/mL
liver Cmax ([3]; monitored compound FDURP, iv): 1573 ng/mL
Drug FDUR Concentration, Liver ([3]; sampling 1, iv 0.015 mmol/kg): BQL
Drug FDUR Concentration, Liver ([3]; sampling 2, iv 0.015 mmol/kg): BQL
Drug FDUR Concentration, Plasma ([3]; sampling 4, iv 0.015 mmol/kg): BQL
Drug FDUR Concentration, Plasma ([3]; sampling 8, iv 0.015 mmol/kg): BQL
Drug FDUR Concentration, Plasma ([3]; sampling 24, iv 0.015 mmol/kg): BQL

COc1ccc(COP(=O)(NCc2ccccc2)OCC2OC(n3ccc(=O)[nH]c3=O)C(C)(F)C2O)cc1F (centres unmarked) [DGX-104]
CC50 [1]: > 100 µM
anti-HCV activity (in words) [2]: biologically potent; also recorded: potent anti-HCV activity
EC50 [2]: 4.1 µM
